The source of these data is patent US9045482B2, “Pyrido[4,3-B]indoles and methods of use” (Medivation Technologies, Inc., priority 2009, dated 2015).

For the assay, the target named is T1, rat adrenergic α1B receptor (Rattus norvegicus, UniProt P15823).
T1 construct: rat adrenergic α1B receptor obtained from Wistar Rat liver; from tissue; host or cells: Wistar Rat liver
T1 sequence (P15823 1-515): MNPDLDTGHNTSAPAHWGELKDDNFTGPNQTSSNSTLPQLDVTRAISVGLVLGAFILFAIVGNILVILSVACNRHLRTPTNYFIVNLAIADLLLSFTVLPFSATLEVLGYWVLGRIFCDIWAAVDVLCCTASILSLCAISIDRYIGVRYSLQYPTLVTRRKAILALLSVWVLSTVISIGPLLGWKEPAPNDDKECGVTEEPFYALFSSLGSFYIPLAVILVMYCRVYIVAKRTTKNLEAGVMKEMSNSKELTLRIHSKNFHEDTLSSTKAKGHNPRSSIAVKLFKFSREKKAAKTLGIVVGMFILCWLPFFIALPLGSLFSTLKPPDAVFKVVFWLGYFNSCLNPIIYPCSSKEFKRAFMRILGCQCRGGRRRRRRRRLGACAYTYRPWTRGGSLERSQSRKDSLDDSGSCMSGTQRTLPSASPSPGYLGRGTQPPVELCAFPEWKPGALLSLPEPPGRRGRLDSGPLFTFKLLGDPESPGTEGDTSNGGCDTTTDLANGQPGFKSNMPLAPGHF
The assay can be described thus: Adrenergic α1B radioligand binding ([3H]Prozosin). Conditions: 0.1 μM ligand conc. Also on record: species or system Wistar Rat. On the procedure: To evaluate in radioligand binding assays the activity of compounds of the invention, rat adrenergic α1B receptor obtained from Wistar Rat liver [Garcia-S'ainz, J. A. et al., Biochem. Biophys. Res. Commun. (1992), 186:760; Michel, A. D. et al., Br. J. Pharmacol. (1989), 98:883] in a modified Tris-HCl buffer (50 mM Tris-HCl buffer, pH 7.4, 0.5 mM EDTA) was used. Compounds of the invention were incubated with 0.25 nM [^3H]Prozosin for 60 min at 25° C. Non-specific binding was estimated in the presence of 10 μM phentolamine. Receptor proteins were filtered and washed, the filters were then counted to determine [^3H]Prozosin specifically bound. Compounds were screened at 1 μM or lower, using 1% DMSO as vehicle. Compounds of the invention were tested in this biochemical assay. Biochemical assay results for representative compounds were presented as the percent inhibition of specific binding in Table 3.

For `O=C(Cn1c2c(c3cccnc31)CN1CCCC1C2)N1CCCCC1` (centres unmarked) [Compound 37, 1-(piperidin-1-yl)-2-(8,9,9a,10-tetrahydro-5H-pyrido[3′,2′:4,5]pyrrolo[3,2-f]indolizin-11(7H)-yl)ethanone], the “Percent Inhibition of ligand binding Adrenergic α1B” value was 9%. For `O=C(Cn1c2c(c3cccnc31)C1CCCN1CC2)N1CCCCC1` (centres unmarked) [Compound 38, 1-(piperidin-1-yl)-2-(2,3,5,6-tetrahydro-1H-pyrido[3′,2′:4,5]pyrrolo[2,3-g]indolizin-7(11cH)-yl)ethanone], the “Percent Inhibition of ligand binding Adrenergic α1B” value is reported as 8%.
